As usually defined, the melting point is the temperature of the solid-liquid transition. What is called bioavailability is the share of a dose that reaches the circulation, judged against a reference dose that is usually intravenous. A lower bioavailability goes with poor availability.

Each structure is given as a SMILES string.

One data set has as its target T1, P2X7 receptor (Homo sapiens, UniProt Q99572).
T1 construct: 200 μl of a suspension of THP-1 cells; endogenous in cells; host or cells: THP-1 cells
T1 sequence (Q99572 1-595): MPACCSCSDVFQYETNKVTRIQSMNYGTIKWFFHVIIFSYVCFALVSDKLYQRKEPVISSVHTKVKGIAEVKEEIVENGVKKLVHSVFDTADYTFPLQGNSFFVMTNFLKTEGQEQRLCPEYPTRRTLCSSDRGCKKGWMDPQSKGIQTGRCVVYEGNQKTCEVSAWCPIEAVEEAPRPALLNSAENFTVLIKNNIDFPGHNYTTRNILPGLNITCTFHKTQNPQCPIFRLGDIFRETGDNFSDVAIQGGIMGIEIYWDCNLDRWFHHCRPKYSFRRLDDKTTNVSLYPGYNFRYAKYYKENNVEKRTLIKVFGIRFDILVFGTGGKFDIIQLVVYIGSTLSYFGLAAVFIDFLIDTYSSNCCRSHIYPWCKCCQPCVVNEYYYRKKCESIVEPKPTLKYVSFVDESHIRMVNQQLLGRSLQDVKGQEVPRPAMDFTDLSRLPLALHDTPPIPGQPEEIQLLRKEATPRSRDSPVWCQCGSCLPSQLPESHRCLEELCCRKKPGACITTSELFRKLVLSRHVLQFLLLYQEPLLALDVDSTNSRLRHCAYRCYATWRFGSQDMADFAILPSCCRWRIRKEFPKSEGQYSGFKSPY
Description: P2X7 assay (bbATP-induced ethidium bromide fluorescence in THP-1 cells). Format: cell-based. Conditions: 10^-5M bbATP agonist, read-out: P2X7 pIC50 (converted). The source says: Certain compounds such as benzoylbenzoyl adenosine triphosphate (bbATP) are known to be agonists of the P2X7 receptor, effecting the formation of pores in the plasma membrane (Drug Development Research (1996), 37(3), p. 126). Consequently, when the receptor is activated using bbATP in the presence of ethidium bromide (a fluorescent DNA probe), an increase in the fluorescence of intracellular DNA-bound ethidium bromide is observed. The increase in fluorescence can be used as a measure of P2X7 receptor activation and therefore to quantify the effect of a compound on the P2X7 receptor.
In this manner, each of the title compounds of the Examples was tested for antagonist activity at the P2X7 receptor. Thus, the test was performed in 96-well flat bottomed microtitre plates, the wells being filled with 250 μl of test solution comprising 200 μl of a suspension of THP-1 cells (2.5×10^6 cells/ml) containing 10^−4M ethidium bromide, 25 μl of a high potassium buffer solution containing 10^−5M bbATP, and 25 μl of the high potassium buffer solution containing concentrations of test compound typically from 30 μM-0.001 μM. The plate was covered with a plastics sheet and incubated at 37° C. for one hour. The plate was then read in a Perkin-Elmer fluorescent plate reader, excitation 520 nm, emission 595 nm, slit widths: Ex 15 nm, Em 20 nm. For the purposes of comparison, bbATP (a P2X7 receptor agonist) and pyridoxal 5-phosphate (a P2X7 receptor antagonist) were used separately in the test as controls. From the readings obtained, a pIC50 figure was calculated for each test compound, this figure being the negative logarithm of the concentration of test compound necessary to reduce the bbATP agonist activity by 50%.

In data set [1] the target is T2, ion channel subunit encoded by the human ether-a-go-go-related gene (hERG) (Homo sapiens, UniProt Q12809).
T2 construct: expressed in transfected cells; host or cells: HEK (human embryonic kidney) cells, membrane preparation
Description: hERG binding protocol (radioligand competition, HEK cell membranes expressing hERG). Conditions: for IC50: a 'less than' figure indicates <50% inhibition at the quoted concentration, the highest tested, read-out: hERG pIC50 (converted); for P2X7:hERG Ratio: ratio of P2X7:hERG affinity. On the procedure:
The hERG assay was performed according to the procedure described in WO2005/037052. The affinity (pIC50) of compounds for the ion channel subunit encoded by the human ether-a-go-go-related gene (hERG) gene was determined by competition binding of radioligand 3,7-Bis[2-(4-nitro[3,5-^3H]phenyl)ethyl]-3,7-diazabicyclo[3.3.1]nonane to HEK (human embryonic kidney) cell membranes expressing hERG, in a filter wash format.
Membranes were incubated for 3 hours at room temperature with serial dilutions of the test compounds, radioligand 3,7-Bis[2-(4-nitro[3,5-^3H]phenyl)ethyl]-3,7-diazabicyclo[3.3.1]nonane at 1 nM final concentration, and assay buffer (10 mM HEPES, 130 mM NaCl, 5 mM KCl, 1 mM EGTA, 0.8 mM MgCl2, pH 7.4). The assay was conducted in a final volume of 200 μL, in the presence of 1% (v/v) dimethyl sulphoxide. Non-specific binding was determined by measuring the binding of 3,7-Bis[2-(4-nitro[3,5-^3H]phenyl)ethyl]-3,7-diazabicyclo[3.3.1]nonane in the presence of 10 […]. During this incubation GF/B filter plates were immersed in coating solution 0.3% (v/v) Polyethylenimine and 0.2% (w/v) BSA). Following incubation assay plates were harvested onto precoated GF/B filter plates using a Tomtec harvester.
The pIC50, defined as the negative logarithm of the concentration of compound required for 50% reduction in 3,7-Bis[2-(4-nitro[3,5-^3H]phenyl)ethyl]-3,7-diazabicyclo[3.3.1]nonane binding, was determined. A ‘less than’ figure indicates <50% inhibition at the quoted concentration, this being the highest concentration tested.

The nature of a further data set: Bioavailability - Rat PK. The data set is classed as in vivo, male Sprague Dawley rats. Conditions: male, Sprague Dawley, plasma, po 5 mg/kg vs iv 3 mg/kg. The procedure: Pharmacokinetic parameters and concepts are used in DMPK to describe the fate of a compound in the body. The distribution and excretion of a compound are reflected in the plasma concentration-time profile. By appropriate dosing, sampling and analysis key parameters (clearance, volume, half-life, bioavailability etc.) can be determined.
Test compounds were typically dosed intravenously to the right lateral tail vein of male Sprague Dawley rats at a dose level of 3 mg/kg (1 ml/kg) in DMA:water (40:60 v/v). Rats were dosed orally at a dose level of 5 mg/kg (2 ml/kg) in 0.5% hydroxypropylmethylcellulose (HPMC, w/v)/0.1% Tween 80 (v/v) in water). […]
To determine the plasma levels of test compound, 50 μl of methanol was added to 50 μl of each of the test samples, whilst 40 μl of methanol was added to the 50 μl aliquots of control plasma containing 10 μl spikes of authentic standard used to create a calibration line and QCs. […] The resultant supernatants were analysed by HPLC-MSMS after an appropriate, selective and sensitive method had been created by optimizing both cone voltage and collision energy.
Pharmacokinetic parameters were derived from concentration-time using non-compartmental analysis in WinNonLin®. Bioavailability was calculated using the following equation F=AUCPO*DoseIV/AUCIV*DosePO.

A further data set concerns primary rat hepatocytes. Put plainly: In vitro phospholipidosis protocol. Format: cell-based, Han Wistar rats. The procedure: Assessment of a compounds potential to induce phospholipidosis was determined by an in vitro fluorescent assay which reports the accumulation of phospholipids in primary rat hepatocytes. Hepatocytes were isolated from Han Wistar rats by a 2-stage collagenase digest method. The hepatocytes were then plated on collagen coated 96-well plates in William's E medium. The cells were left to adhere for 1 hour then the media was replaced with a solution of 250 μg·ml^−1 collagen in Hepatozyme cell culture medium.
Cells were then cultured for 48 hours with the medium being changed at 24 hours. At 48 hours post isolation the medium was changed to Hepatozyme supplemented with the fluorescent phospholipid N-(6-tetramethylrhodaminethiocarbamoyl)-1,2-dihexadecanoyl-sn-glycero-3-phosphoethanolamine (DHPE-TRITC) (5 μg·ml^−1). At this time, test compounds were added to the hepatocytes at a range of concentrations in a serial dilution with a final concentration of 0.4% dimethylsulfoxide (used as solvent for test compounds). […]
Images of the hepatocytes were then acquired using an automated microscope platform (GE In Cell Analyser 3000). […] The quantified accumulation observed with test compounds was then normalised to a range of 0, representing the accumulation observed in cells exposed to vehicle only, and 1, representing cells exposed to 10 μM amiodarone. […]

T2 sequence (Q12809 whole entry): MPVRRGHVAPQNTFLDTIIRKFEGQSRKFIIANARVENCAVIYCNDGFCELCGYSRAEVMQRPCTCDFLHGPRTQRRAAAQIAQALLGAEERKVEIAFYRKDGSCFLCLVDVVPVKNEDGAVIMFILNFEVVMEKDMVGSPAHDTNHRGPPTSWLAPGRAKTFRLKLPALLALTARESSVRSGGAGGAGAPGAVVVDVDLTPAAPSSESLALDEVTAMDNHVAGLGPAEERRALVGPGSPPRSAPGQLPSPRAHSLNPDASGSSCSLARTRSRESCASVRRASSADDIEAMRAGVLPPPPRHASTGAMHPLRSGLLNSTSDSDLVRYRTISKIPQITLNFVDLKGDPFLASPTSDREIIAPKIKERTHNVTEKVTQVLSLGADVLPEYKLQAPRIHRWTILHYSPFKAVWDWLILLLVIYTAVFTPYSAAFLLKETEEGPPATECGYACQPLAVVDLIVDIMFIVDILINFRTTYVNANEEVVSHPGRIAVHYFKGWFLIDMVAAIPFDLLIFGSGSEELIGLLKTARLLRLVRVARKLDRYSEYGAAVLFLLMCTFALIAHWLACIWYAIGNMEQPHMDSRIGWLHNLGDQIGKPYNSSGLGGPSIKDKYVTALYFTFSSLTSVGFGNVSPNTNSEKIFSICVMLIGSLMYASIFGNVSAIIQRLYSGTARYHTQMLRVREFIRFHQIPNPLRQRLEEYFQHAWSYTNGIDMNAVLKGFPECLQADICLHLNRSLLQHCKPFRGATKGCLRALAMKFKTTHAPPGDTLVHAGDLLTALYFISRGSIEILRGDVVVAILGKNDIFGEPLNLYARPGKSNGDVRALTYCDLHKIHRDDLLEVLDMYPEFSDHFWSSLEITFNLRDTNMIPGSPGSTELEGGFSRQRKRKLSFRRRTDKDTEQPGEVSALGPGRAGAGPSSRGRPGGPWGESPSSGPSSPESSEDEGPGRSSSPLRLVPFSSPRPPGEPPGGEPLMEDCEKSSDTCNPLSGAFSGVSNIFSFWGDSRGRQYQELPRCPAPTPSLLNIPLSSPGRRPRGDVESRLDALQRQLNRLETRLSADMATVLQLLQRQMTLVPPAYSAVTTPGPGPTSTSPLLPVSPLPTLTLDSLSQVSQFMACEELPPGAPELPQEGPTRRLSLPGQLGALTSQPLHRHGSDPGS

For `C[C@H]1CCC[C@@](O)(CNC(=O)c2c(Cl)ccc3nc(N4CCC(C)(O)C4)ccc23)C1` (single isomer, unassigned) [Example 4 - isomer 2], the IC50 on P2X7 receptor is 10 nM. In data set [1], the IC50 was over 100000 nM and the “P2X7:hERG Ratio” value is recorded as >10,000.

The compound `C[C@H]1CCC[C@@](O)(CNC(=O)c2c(Cl)ccc3nc(N4CC[C@H](O)C4)ccc23)C1` [Example 1, 6-Chloro-N-{[(1S,3S)-1-hydroxy-3-methylcyclohexyl]methyl}-2-[(3S)-3-hydroxypyrrolidin-1-yl]quinoline-5-carboxamide] had a melting point of 222 °C. Also, on P2X7 receptor, the IC50 was 7.94 nM. In data set [1], the IC50 is over 100000 nM and the “P2X7:hERG Ratio” value is given as >10,000.

`C[C@H]1CCC[C@@](O)(CNC(=O)c2c(Cl)ccc3nc(N4CC[C@@H](O)C4)ccc23)C1` [Example 2, 6-Chloro-N-{[(1S,3S)-1-hydroxy-3-methylcyclohexyl]methyl}-2-[(3R)-3-hydroxypyrrolidin-1-yl]quinoline-5-carboxamide] came in with a melting point of 222 to 223 °C. Moreover, the IC50 at P2X7 receptor is 7.94 nM. In addition, in data set [1], the IC50 is over 100000 nM and the “P2X7:hERG Ratio” value is on record as >10,000. In the data set “Bioavailability - Rat PK”, the bioavailability amounted to 59%. Moreover, in the data set with primary rat hepatocytes (lowest dose that caused >50% cell toxicity, primary rat hepatocytes), the minimum toxic concentration is over 250 µM. In the data set on primary rat hepatocytes (maximum test concentration of 250 uM, normalised 0 = vehicle, 1 = 10 μM amiodarone), the “phospholipid (DHPE-TRITC) accumulation” value is recorded as “no measurable accumulation”.

As for `C[C@H]1CCC[C@@](O)(CNC(=O)c2c(Cl)ccc3nc(N4CCC(O)CC4)ccc23)C1` [Example 3, 6-Chloro-N-{[(1S,3S)-1-hydroxy-3-methylcyclohexyl]methyl}-2-(4-hydroxypiperidin-1-yl)quinoline-5-carboxamide], the melting point is 120 °C (dec.). Also, on P2X7 receptor, the IC50 was 7.94 nM. Further, in data set [1], the IC50 was over 100000 nM and the “P2X7:hERG Ratio” value is on record as >10,000.

For `C[C@H]1CCC[C@@](O)(CNC(=O)c2c(Cl)ccc3nc(N4CCC(C)(O)C4)ccc23)C1` (stereo partly drawn) [Example 4, 6-Chloro-N-{[(1S,3S)-1-hydroxy-3-methylcyclohexyl]methyl}-2-(3-hydroxy-3-methylpyrrolidin-1-yl)quinoline-5-carboxamide], the melting point was 195 to 200 °C (dec.).

Values taken from patent US7964616B2, “Compounds 679” (AstraZeneca AB, priority 2007, dated 2011).
